According to publication PMC11904948, “Peptide‐Drug Conjugate for Therapeutic Reprogramming of Tumor‐Associated Macrophages in Breast Cancer” (Advanced Science, 2025):

Experiments:
orthotopic 4T1.2 tumors = experiment: MACTIDE-V monotherapy in orthotopic 4T1.2; format: in vivo, Balb/c mice
Description: We evaluated the effect of MACTIDE‐V on tumor progression and metastasis in the highly metastatic orthotopic 4T1.2 model.^[ [33] ^] When tumors reached 55 mm^3 we began the treatment with MACTIDE‐V or CtrlPep‐V every other day until day 23, using the same dose used in section 5. […] No body weight loss was detected in any of the groups (Figure S7, Supporting Information).
Figure 7 MACTIDE‐V slows tumor growth and suppresses lung metastasis in orthotopic 4T1.2. 4T1.2 bearing mice were treated with 9 doses of CtrlPep‐V, MACTIDE‐V (1 mg Kg^−1 in Verteporfin per dose), or PBS i.p. every other day, while monitoring the primary tumor volume (A). Mice were sacrificed on day 25, tumor weights were measured (B) and pulmonary metastasis areas were quantified from H&E sections (C). D–G) Tumor cell suspensions were analyzed by flow cytometry (n = 4 per group). H) Representative mIHC images of PBS, CtrlPep‐V, and MACTIDE‐V treated tumors, scale bar = 100 µm. I) CD8^+ T cells, CD4^+ T cells, and Treg density obtained from mIHC images (n = 6 mice/group), with every dot representing the mean cell density of each tumor obtained from 20 images. Median ± interquartile range. One‐way ANOVA with multiple comparisons, ^* p ≤ 0.05, ^** p ≤ 0.01.
5×10^5 4T1.2 cells in 50 µL of PBS was injected subcutaneously to 4th mammary fat pad. On day 7, mice were sorted into groups based on tumor volume, ≈55—60 mm^3 calculated based on the formula shown above. Mice were treated every other day with 500 µL of MACTIDE‐V, CtrlPep‐V (30 nmol), and PBS, 9 injections in total, n = 10 mice/group. The cumulative Verteporfin dose was 9 mg kg^−1. The last injection was on day 23. Four mice from each group were sacrificed on day 25 through anesthetic overdose and their tumors were analyzed by flow cytometry (FC) and mIHC. The rest of the mice were left to continue in the study with the initial intention of performing a survival study, however, all of these mice were sacrificed within 5 days based on their tumor size (above 1500 mm^3) or cachexia.
For FC, mice were not perfused, the tumors were cut into small pieces, digested using 10 mL of collagenase IV (200 U mL^−1, Gibco, catalog no.17104019), dispase (0.6 U mL^−1, Gibco, catalog no. 17105‐041) and DNase I (15 U mL^−1, AppliChem, catalog no. A3778) mixture on a rotating platform for up to 60 min at 37 °C, pipetting every 10 min. Red blood cells were lysed using 3 mL of ammonium‐chloride‐potassium lysis buffer. After that, cells were centrifuged (350×g, 7 min, +4 °C), filtered (100 µm cell strainer, Falcon, catalog no. 352360), and counted using the bright‐field mode of LUNA Automated Cell counter (Logos Biosystems). Cells were seeded at a concentration of 5×10^6 cells/100 µL of running buffer (RB) (1L of RB: 4 mL 0.5M EDTA + 100 mL FBS + the rest PBS) on the 96‐well conical bottom plate and incubated for 15 min in dark at RT in 50 µL of Zombie NIR Fixable Viability Kit (BioLegend). After that, 30 µL of blocking antibody (TruStain FcX, Biolegend) was added and incubated for 10 min in the dark at +4 °C. Then, to stain macrophages, 20 µL of antibody mixture was added, and incubated for 25 min in the dark at +4 °C after which 50 µL of RB was added, centrifuged, washed two times with 150 µL of RB, and taken up in 150 µL of RB. For intracellular staining, cells were fixed and permeabilized using the eBioscience Foxp3/Transcription Factor Staining Buffer Set (Thermofisher). Cells were then stained with 100 µL of antibody mixture and incubated for 40 min in the dark at RT. Cells were centrifuged, washed twice with 150 µL of RB, and resuspended in 150 µL of RB. Samples were analyzed using the SONY ID7000 spectral flow cytometer and the accompanying software (Table 4 ).
To determine the pulmonary metastatic area, lungs from MACTIDE‐V monotherapy were stained for hematoxylin and eosin according to the following protocol. […]

[1] = test system: BMDM obtained from C57/Bl6 (B6) mice; experiment: Flow cytometry and real-time PCR on B6 BMDM; format: cell-based, mouse
Description: At the mRNA level, MACTIDE‐V induced a clear increase in Il‐12, Chil3 and Nos2 genes, (Figure 6D, left panel). […] To further investigate whether the effect of MACTIDE‐V was mediated by YAP targeting, we analyzed a set of 7 YAP‐regulated genes (Figure 6D, right panel).
Figure S6. In vitro effect of MACTIDE-V on B6 mice-derived BMDMs. (A) Flow cytometry on BMDMs 48 h after treatment. GeoMean of MHC II in B6 BMDM, n=4 independent experiments. *p≤0.05. (B) Heatmap of the mRNA expression of genes involved in the functional activation of BMDM, measured by real-time PCR 48 h after treatment in B6 BMDM, n=2 independent experiments.

[2] = tumor flow cytometry, n = 4 per group

## Vert‐Ahx‐G(CTKSIPPIC)SPGAK‐OH (disulfide) [MACTIDE‐V]
Orthotopic 4T1.2 tumors; 9 doses i.p. every other day, 30 nmol (1 mg Kg^−1 in Verteporfin per dose), 4 weeks after tumor induction, versus CtrlPep‐V and PBS
  primary tumor volume: significantly smaller tumor volumes
Orthotopic 4T1.2 tumors; 9 doses i.p. every other day, 1 mg Kg^−1 in Verteporfin per dose, area from H&E sections
  pulmonary metastasis: fewer pulmonary metastasis
Orthotopic 4T1.2 tumors; 9 doses i.p. every other day, 1 mg Kg^−1 in Verteporfin per dose, sacrifice day 25
  endpoint tumor weights: smaller endpoint tumor weights
Orthotopic 4T1.2 tumors; compared to CtrlPep‐V and PBS, n = 6 mice/group
  CD4^+ T cell density (mIHC): significant increase in CD4^+ T cell density
Orthotopic 4T1.2 tumors; n = 6 mice/group
  Treg density (mIHC): no differences in Treg density
Orthotopic 4T1.2 tumors; [2]
  MHC II^−CD206^+ subset of TAM/monocytes: decreased
  PD‐1 expression in CD8^+ and CD4^+ T cells: decrease in PD‐1 expression
  percentage of MHCII^+CD206^+ TAM/monocytes: increased
  tumor‐infiltrating B cells: no change
Orthotopic 4T1.2 tumors; tumor flow cytometry, with respect to CtrlPep‐V and PBS, n = 4 per group
  proportion of tumor‐infiltrating T cells and NK cells: rise in the proportion
[1]; flow cytometry 48 h after treatment, n = 4
  MHCII expression in B6 BMDM (GeoMean): increased MHCII expression
[1]; real-time PCR 48 h after treatment, n = 2
  inflammatory gene mRNA expression in B6 BMDM: upregulated the inflammatory genes Il‐1b, Il‐12 and Nos2
